From patent EP4420661B1, “SMALL MOLECULES TARGETING GLYCOPROTEIN VI AS ANTIPLATELET AGENTS FOR USE IN THE PREVENTION AND/OR TREATMENT OF THROMBOSIS AND ASSOCIATED PATHOLOGIES” (Universidade de Santiago de Compostela, priority 2023, dated 2024)
≈ marks a conversion by molar mass, not a printed value.

How the values were obtained:
GPVI = target: T1, GPVI (Homo sapiens, UniProt Q9HCN6); test: label-free biophysical binding assay based on dynamic mass redistribution (DMR), immobilized GPVI; conditions: for interaction with GPVI, Mean: DMR response; for interaction profile with GPVI (in words): concentration-response
T1 sequence (Q9HCN6 21-267 limits assumed): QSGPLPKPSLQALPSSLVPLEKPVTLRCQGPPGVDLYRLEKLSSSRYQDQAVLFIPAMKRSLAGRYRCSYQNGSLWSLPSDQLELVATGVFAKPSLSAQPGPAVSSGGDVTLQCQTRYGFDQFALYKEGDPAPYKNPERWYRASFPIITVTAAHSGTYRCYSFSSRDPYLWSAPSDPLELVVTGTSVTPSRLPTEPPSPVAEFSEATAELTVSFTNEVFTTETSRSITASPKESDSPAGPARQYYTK
From the text: A biophysical assay to test direct interaction with GPVI was developed by using a label-free methodology based on dynamic mass redistribution (DMR).
This protocol consists of immobilizing the target protein in a surface by chemical means and then measure the refractory index of a light directed to the bottom of the surface, which contains a sensor. It has been used previously for other targets to determine the potency of ligands such as peptides and molecules [Akhter et al., (2017) and Álvarez-Coiradas et al., (2020)].
Briefly, EnSpire LFB high sensitivity plates (PerkinElmer 6057460, USA) were activated with 400 mM EDC (N-(3-dimethylaminopropyl)-N'- ethylcarbodiimide hydrochloride) (Sigma Aldrich, UK) and 100 mM sulfo-NHS (sulfo-N-hydroxysulfosuccinimide) (Thermo Fisher, USA) diluted in ultrapure water for 30 min at room temperature. Microplates were subsequently washed with ultrapure water. GPVI protein was immobilized (25 µg/ml) in 20 mM sodium acetate buffer, pH 5.5. After an overnight incubation at 4 °C, the microplate was wa- shed with PBS with 0.005% Tween-20, pH 7.4 (assay buffer). Baseline was read after three hours on EnSpireTM 2300 Multilabel Plate Reader (PerkinElmer, Singapore). Compounds were added to the microplate, incubated for 1 h and the final read was performed in the EnSpireTM 2300 Multilabel Plate Reader. Recombinant CRP and assay buffer were employed as a positive and a negative control, respectively.
Compounds were assayed by means of concentration-response curves with concentrations between 100 µM and 0.4 µM (1:3 serial dilutions in triplicates), while CRP was assayed similarly starting with 7µg/ml top dose and a total of 6 concentrations (1:2 serial dilutions in triplicates). Response (pm) was obtained by subtracting the baseline measurement from the final read.

[1] = metabolic stability, rat microsomes; format: in vitro ADME
Procedure: (§1) Microsomes from Tebu-bio Xenotech were employed in the assay, having a content of 20 mg/ml of protein. The following quantities were added to each well of a 96-well microplate. Table 6: Metabolic stability assay.
(§2) Plates were incubated at 37°C and 75 µL samples were taken at 0, 10, 20, 40 and 60 minutes.
(§3) Samples were transferred to a microplate and 75 µl Acetonitrile + IS(Rolipram) were added for inactivating the microsomes, and 30 µl of H2O with 0.5% formic acid for improving the chromatographic conditions and kept at 4°C. When all the samples were taken the plate was centrifuged at […] for 30 min at 15°C. Stationary phase: ACQUITY BEH C18 1.7µm 2.1x50mm (Waters) Mobile phase: A: 0.1% formic; B: acetonitrile+0.1% formic acid Gradient: Table 6: UPLC gradient / Metabolic stability assay
(§4) Metabolic stability was calculated from the logarithm of the remaining compound at each of the times evaluated.

[2] = metabolic stability, mouse microsomes; format: in vitro ADME
Procedure: Samples were transferred to a microplate and 75 µl Acetonitrile + IS(Rolipram) were added for inactivating the microsomes, and 30 µl of H2O with 0.5% formic acid for improving the chromatographic conditions and kept at 4°C. When all the samples were taken the plate was centrifuged at 46000 g for 30 min at 15°C. Stationary phase: ACQUITY BEH C18 1.7µm 2.1x50mm (Waters) Mobile phase: A: 0.1% formic; B: acetonitrile+0.1% formic acid Gradient: Table 6: UPLC gradient / Metabolic stability assay

[3] = metabolic stability, human microsomes; format: in vitro ADME
Procedure: as §1, §2, §3, §4

[4] = metabolic stability, dog microsomes; format: in vitro ADME
Procedure: as §1, §2, §3, §4

physchem = conditions: 37 °C, aqueous buffer, kinetic from dmso stock
Procedure: (§5) Solubility was determined by nephelometry to assess its potential impact on the bioassays at active concentrations.
(§6) Then, said compounds were incubated for 2 hours at 37°C and read in a NEPHELOstar Plus (BMG LABTECH).

[5] = * from Dehring et al. (2004); cited from earlier work
[6] = solubility by nephelometry; conditions: 37 °C, aqueous buffer, kinetic from dmso stock
Procedure: as §5, §6

human platelets [7] = test: intracellular Ca+2 mobilization assay, CRP-activated washed platelets (FLIPR Calcium 4); format: cell-based; conditions: Platelet, calcium mobilization in human platelets, read-out: % Inhibition of CRP effect at 1µM, Mean
Procedure: An intracellular Ca^+2 mobilization assay was used to test the activity of the ligands in platelets. This assay measures the changes in calcium in real time by fluorophore dye Calcium 4, providing a useful way to characterize platelet activation by GPVI signaling [Barrachina et al. (2021)].
Washed platelets (5x10E6) were incubated with FLIPR Calcium 4 reagent (Molecular Devices LLC, San Jose, CA, USA) in a 384-well transparent bottom plate (Greiner Bio-One International GmbH, Kremsmünster, Austria) and supplemented with Probenecid (Invitrogen™, Carlsbad, CA, USA) 0.07% for 1 h at 37 °C. Platelets were co-incubated for 10 min with the tested compounds and inhibitors of secondary mediators (2 U/mL apyrase and 10 microM indomethacin (Sigma-Aldrich, Saint Louis, MO, USA)) under nonaggregating conditions (9 microM eptifibatide (Cayman Chemicals, Ann Arbor, MI, USA)). Then, the GPVI-specific agonist Collagen-Related Peptide (CRP) was added to the platelet suspension at different doses. Both potential GPVI inhibitors and CRP were automatically dispensed by FDSS7000EX Functional Drug Screening System (Hamamatsu Photonics, Hamamatsu, Japan). Intracellular Ca^2+ mobilization was assessed by measuring fluorescence changes ([…] wavelengths) in real time for 15 min after the addition of the agonist. 100% was expressed as maximal Ca^2+ release in platelets treated with the agonist CRP. To determine IC50, compounds were tested at 9 different concentrations in duplicates starting from 10 uM and performing 1:3 serial dilutions. The analysis of the data was performed with GraphPad Prism® software (version 6.0e, March 2014) (GraphPad Software, San Diego, CA, USA) by carrying out a nonlinear regression fit for log(inhibitor) vs. relative CRP activity using a Hill slope of -1, and top and bottom constraints of 100 and 0, respectively.

human platelets [8] = test: platelet spreading assay on CRP (phalloidin staining, confocal microscopy); format: cell-based; conditions: 10µM; CRP 1µg/mL; Figure 4
Procedure: Platelet spreading experiments were carried out to assess the potency of the compounds of formula (I), exemplified by compounds (If)and (Ih).
Platelets can change from a rounded, non-adherent form to adhere and flatten shape when exposed to ligands. This "spreading" effect can lead to the formation of cytoskeletal protein rearrangement. Platelet adhesion and extent of spreading (area covered) can be quantified.
Briefly, human platelets from healthy individuals were isolated and washed. Then, platelets were incubated with the inhibitors at 10µM for 5 min at room temperature and then for 45 min at 37°C in coverslips coated with 1µg/mL of agonist (CRP).
The images of platelet shape given by phalloidin staining were acquired by confocal fluorescence microscopy and the area analyzed by ImageJ [Onselaer et al., (2020)].

human platelets [9] = test: platelet aggregation assay, CRP-induced; format: cell-based; conditions: 10 µM; CRP 1 µg/mL; Figure 2
Procedure: Platelet aggregation assays were carried out to assess the potency of the active compounds as previously described [Barrachina et al. (2021)].
Briefly, human platelets from at least =7 healthy individuals were isolated and washed. Then, the suspension was incubated with the compounds at 10 µM at 37 ∘C for 4 min in a Chrono-log® 490-X aggregometer (Chrono-log Corporation, Havertown, PA, USA). After that, platelets were stimulated with the agonist CRP at 1 µg/mL for 5 min.

human platelets [10] = test: platelet aggregation selectivity assay (agonists collagen, rhodocytin, thrombin); format: cell-based; conditions: 10 µM
Procedure: In addition, an assessment of the selectivity of the active compound (Ic)at 10 µM was carried out based on aggregation assays. Briefly, human platelets from healthy individuals were isolated and washed. The agonists used in this selectivity assay were collagen, rhodocytin, and thrombin.

Molecule: O=C(Cc1ccc2c(c1)OCCO2)Nc1nc2c(Cl)cccc2s1 [Ref. compound B, reference compound]
- interaction with GPVI, Mean (GPVI; Compound concentration (1µM)): 6.77 pm
- interaction with GPVI, Mean (GPVI; Compound concentration (10µM)): -16.01 pm
- interaction profile with GPVI (in words) (GPVI; DMR): did not show a good interaction profile

Molecule: collagen related peptide [CRP]
- interaction profile with GPVI (in words) (GPVI): robust dose-dependent response

Molecule: C[C@]12CC[C@H]3[C@@H](CCC4=CC(=O)CC[C@@]43C)[C@@H]1CC[C@@H]2O [Testosterone, reference compound]
- % remanent (*) ([1]; Rat microsomes, (*) sampling time 60 min): 0.14%
- half-life ([1]; rat, rat microsomes): 0.9 min
- t1/2 [2]: 4.76 min
- % remanent (*) ([2]; (*) sampling time 60 min): 0.06%
- t1/2 [3]: 12.95 min
- % remanent (*) ([3]; (*) sampling time 60 min): 4.02%
- % remanent (*) ([4]; Dog microsomes, (*) sampling time 60 min): 49.1%
- half-life ([4]; dog, dog microsomes): 59.9 min
- microsomal CLint ([4]; dog, dog microsomes): 11.8 µL/min/mg

Molecule: CC(=O)[C@H]1CC[C@H]2[C@@H]3CCC4=CC(=O)CC[C@]4(C)[C@H]3CC[C@]12C [Progesterone, reference compound]
- solubility at 2 h (physchem): 5.1 µM (≈ 1.6 µg/mL)
- Reported solubility [5]: 3.7* µM

Molecule: Cc1ccc2nc(NC(=O)Cc3ccc4c(c3)OCCO4)sc2c1 [Ref. compound A, reference compound]
- interaction with GPVI, Mean (GPVI; Compound concentration (1µM)): -9.78 pm
- interaction with GPVI, Mean (GPVI; Compound concentration (10µM)): 1.91 pm
- interaction profile with GPVI (in words) (GPVI; DMR): did not show a good interaction profile

Molecule: C[C@H]1O[C@@H](O[C@H]2[C@@H](O)C[C@H](O[C@H]3[C@@H](O)C[C@H](O[C@H]4CC[C@@]5(C)[C@H](CC[C@@H]6[C@@H]5C[C@@H](O)[C@]5(C)[C@@H](C7=CC(=O)OC7)CC[C@]65O)C4)O[C@@H]3C)O[C@@H]2C)C[C@H](O)[C@@H]1O [Digoxin, reference compound]
- Reported solubility [5]: 59.3* µM
- solubility at 2 h [6]: 96.9 µM (≈ 75.7 µg/mL)

Molecule: O=C(Cc1ccc2c(c1)OCCO2)Nc1nc(-c2ccc(Cl)cc2)cs1 [Compound (Ib)]
- solubility at 2 h (physchem; pbs with 1% dmso): 50 µM (≈ 19.3 µg/mL)
- inhibition at 1 µM (human platelets [7]): 15.9%
- interaction with GPVI, Mean (GPVI; Compound concentration (1µM)): 13.76 pm
- interaction with GPVI, Mean (GPVI; Compound concentration (10µM)): 20.47 pm
- platelet spreading on CRP (in words) (human platelets [8]): inhibition of platelet spreading on CRP
- inhibition of platelet aggregation (in words) (human platelets [9]): consistent inhibition of platelet aggregation

Molecule: O=C(Cc1ccc2c(c1)OCCO2)Nc1nc(-c2ccccc2)cs1 [Compound (Ia)]
- solubility at 2 h (physchem; pbs with 1% dmso): 5.4 µM (≈ 1.9 µg/mL)
- inhibition at 1 µM (human platelets [7]): 53.7%
- interaction with GPVI, Mean (GPVI; Compound concentration (1µM)): 10.8 pm
- interaction with GPVI, Mean (GPVI; Compound concentration (10µM)): 19.81 pm

Molecule: O=C(Cc1ccc2c(c1)OCCO2)Nc1nc(-c2ccc3c(c2)CCCC3)cs1 [Compound (Id)]
- solubility at 2 h (physchem; pbs with 1% dmso): 21.9 µM (≈ 8.9 µg/mL)
- inhibition at 1 µM (human platelets [7]): 36%
- interaction with GPVI, Mean (GPVI; Compound concentration (1µM)): 17.38 pm
- interaction with GPVI, Mean (GPVI; Compound concentration (10µM)): 28.66 pm

Molecule: O=C(Cc1ccc2c(c1)OCCO2)Nc1nc(-c2ccc(Br)cc2)cs1 [Compound (Ic)]
- solubility at 2 h (physchem; pbs with 1% dmso): 51.9 µM (≈ 22.4 µg/mL)
- inhibition at 1 µM (human platelets [7]): 34%
- interaction with GPVI, Mean (GPVI; Compound concentration (1µM)): 12.37 pm
- interaction with GPVI, Mean (GPVI; Compound concentration (10µM)): 25.42 pm
- platelet spreading on CRP (in words) (human platelets [8]): inhibition of platelet spreading on CRP
- platelet aggregation, platelets exposed to collagen (in words) (human platelets [10]; agonist collagen): consistent inhibition of platelet aggregation
- platelet aggregation induced by rhodocytin (in words) (human platelets [10]; agonist rhodocytin): unchanged
- platelet aggregation induced by thrombin (in words) (human platelets [10]; agonist thrombin): unchanged
- inhibition of platelet aggregation (in words) (human platelets [9]): consistent inhibition of platelet aggregation

Molecule: COc1cc2nc(N3CCN(C(=O)c4ccco4)CC3)nc(N)c2cc1OC [Prazosin, reference compound]
- solubility at 2 h (physchem): 77.2 µM (≈ 29.6 µg/mL)
- Reported solubility [5]: 26.3* µM

Molecule: O=C(Cc1ccc2c(c1)OCCO2)Nc1nc(-c2ccc3ccccc3c2)cs1 [Compound (Ie)]
- solubility at 2 h (physchem; pbs with 1% dmso): 22.5 µM (≈ 9.06 µg/mL)
- inhibition at 1 µM (human platelets [7]): 24.6%
- interaction with GPVI, Mean (GPVI; Compound concentration (1µM)): 6.50 pm
- interaction with GPVI, Mean (GPVI; Compound concentration (10µM)): 25.16 pm
- inhibition of platelet aggregation (in words) (human platelets [9]): consistent inhibition of platelet aggregation
